One assay concerns myocardial infarct size. Briefly: Rat acute myocardial infarction model (extension of myocardial infarct size). In kind it is in vivo. The settings on record: 1 mg/kg, i.v. As for the experimental part:
(1) Inhibitory effects of Compound A on the extension of myocardial infarct size were determined by "Rat acute myocardial infarction model" described in British Journal of Pharmacology, 114, 949-954 (1995).
(2) Inhibitory effects of Compound B [(S)-(-)-7-(2-chlorophenyl)-5-guanidinoimino-4-methyl-5,6,7,8-tetrahydroquinoline] on the extension of myocardial infarct size were determined by "Rat acute myocardial infarction model" described in British Journal of Pharmacology, 114, 949-954 (1995).

The subject of another assay is lethal arrhythmia. Briefly: Lethal arrhythmia induced by coronary artery occlusion for 5 minutes with reperfusion. In kind it is in vivo, Male Wistar rats. The procedure: Inhibitory effects of Compounds A and B on lethal arrhythmia were determined by the following method:
Male Wistar rats (10-week-old) were anaesthetized with pentobarbital and the chest was opened to expose the heart. Arrhythmia was induced by coronary artery occlusion for 5 minutes with reperfusion of the coronary blood flow. Ventricular arrhythmia observed during occlusion and for 5 minutes after reperfusion was recorded on Mac Lab through polygraph, and the II Lead electro-cardiogram was recorded. Ventricular tachycardia (VT) was counted when premature ventricular complex (PVC) continued more than 5 times. Each of the drugs was dissolved in saline and administered from the femoral vein 5 minutes before coronary artery occlusion.

The mark [1] stands for this setting: premature ventricular complex, drug in saline via femoral vein 5 minutes before coronary artery occlusion.
The mark [2] stands for this setting: ventricular tachycardia, drug in saline via femoral vein 5 minutes before coronary artery occlusion.

As for `Cc1ccnc2c1C(=NNC(=N)N)C[C@@H](c1ccccc1Cl)C2` [Compound B, (S)-(-)-7-(2-chlorophenyl)-5-guanidinoimino-4-methyl-5,6,7,8-tetrahydroquinoline], in the assay on myocardial infarct size (Post-treatment, 1 minute before reperfusion started), the infarct size/area-at-risk came out at 39±3 %. In the assay with myocardial infarct size (Pre-treatment, 5 minutes before coronary occlusion), the infarct size/area-at-risk was determined as 30±5 % t**. Besides, in the assay with lethal arrhythmia (setting [1]), the “PVC D (duration)” value is 20.9 ± 4.3 s and the “PVC N (number of PVCs)” value came out at 4.8±2.8 time. Moreover, the “inhibitory effects on lethal arrhythmia” value in the assay with lethal arrhythmia (summary in words of the arrhythmia table) is “showed inhibitory effects on lethal arrhythmia”. In the assay with lethal arrhythmia (setting [2]), the “VT D (duration)” value is 7.2 ± 3.6 s and the “VT F (frequency)” value is 3.0±0.7 time.

The values are drawn from patent EP0950418A2, “Composition for preventing or treating ischemic disease” (Takeda Chemical Industries, Ltd., priority 1998, dated 1999).
